Several values for one entry are separate records, joined by “and”; a condition that tells them apart may be missing. Identical values can stand only once.
What was measured:
non-growing UPEC CFT073 = assay: Dose-dependent killing analysis (CFU spot-plating) of stationary-phase UPEC; format: cell-based, Escherichia coli
Method in brief: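 Killing assessed by CFU counts: overnight 37 °C LB agar spot plates (10 μl drops of 10-fold PBS dilutions) scored at the lowest dilution with distinct colonies. Samples were compound-treated non-growing UPEC CFT073, 200 μl per well. Performed as three biological replicates.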

[1] = tested on: non-growing S. aureus DSM2569; assay: Dose-dependent killing analysis (CFU spot-plating) of stationary-phase S. aureus;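 on average Δlog10(CFU/ml) (killing): drug concentration in µM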; format: cell-based, Staphylococcus aureus; conditions: for average Δlog10(CFU/ml) (killing) / log10(CFU/ml) after treatment, single replicates / Killing: average Δlog10(CFU/ml): S. aureus; for average Δlog10(CFU/ml) (killing) / Killing: average Δlog10(CFU/ml): vs 9,097 before treatment
Experimental: To determine the spectrum of activity of the compounds that were effective against non-growing UPEC, we further assessed their efficacy against the well-characterized Gram-negative and Gram-positive reference strains P. aeruginosa DSM1117 and S. aureus DSM2569, respectively. The cultures were grown and treated for 24 h in 1:4 CA-MHB (pH 7.4). […].
For survival analysis, bacteria were cultivated as described for the dose–response dilution-regrowth assay. Assays with UPEC were conducted at the CBCS screening facility using 96-well plates with a 200 μl sample volume, and compounds were dispensed using the Echo® (Labcyte) system. P. aeruginosa and S. aureus samples were treated according to the protocol used for the dilution-regrowth experiments. Treated samples were serially diluted 10-fold in PBS, and 10 μl drops were spot-plated onto rectangular LB agar plates using either a Beckman NXP robot (for UPEC) or an Integra VIAFLO96 electronic pipette (for P. aeruginosa and S. aureus). The LB agar plates were incubated overnight at 37 °C and scanned. Colonies were counted at the spots of the lowest dilution where individual colonies could be accurately distinguished. Each colony was manually marked on a separate image layer using the GNU Image Manipulation Program, and counted using NIST’s Integrated Colony Enumerator (NICE 1.4) software. The experiments were performed in three biological replicates.

COc1c(N2CCNC(C)C2)c(F)cc2c(=O)c(C(=O)O)cn(C3CC3)c12 (stereo not drawn) [Gatifloxacin]
bactericidal effect against stationary-phase UPEC cultures (non-growing UPEC CFT073; 20 µM, preliminary experiments): bactericidal effects | average Δlog10(CFU/ml) (killing) ([1]; drug conc. 0.1): -0.121 log10(CFU/ml) | average Δlog10(CFU/ml) (killing) ([1]; drug conc. 0.5): -0.040 log10(CFU/ml) | average Δlog10(CFU/ml) (killing) ([1]; drug conc. 2.5): 0.371 log10(CFU/ml) | average Δlog10(CFU/ml) (killing) ([1]; drug conc. 10): 0.946 log10(CFU/ml)

CCCCC(CC)CNC(=N)NC(=N)NCCCCCCNC(=N)NC(=N)NCC(CC)CCCC (stereo not drawn) [Alexidine]
reduction of non-growing S. aureus ([1]; at 10 µM, 24 h treatment): below the limit of detection

CO[C@H]1/C=C/O[C@@]2(C)Oc3c(C)c(O)c4c(O)c(c(/C=N/N=C/N5CCCCC5)c(O)c4c3C2=O)NC(=O)/C(C)=C\C=C\[C@H](C)[C@H](O)[C@@H](C)[C@@H](O)[C@@H](C)[C@H](OC(C)=O)[C@@H]1C [FCE-22250]
log10(CFU/ml) after treatment, single replicates (non-growing UPEC CFT073; E. coli in 1:4 CA-MHB (pH 7.4), concentration 0.25): 9.301 log10(CFU/ml) and 8.845 log10(CFU/ml) and 8.602 log10(CFU/ml) | Killing: average Δlog10(CFU/ml) (non-growing UPEC CFT073; E. coli in 1:4 CA-MHB (pH 7.4), concentration 0.25, vs 8.977 before treatment): 0.061 log10(CFU/ml) | log10(CFU/ml) after treatment, single replicates (non-growing UPEC CFT073; E. coli in 1:4 CA-MHB (pH 7.4), concentration 0.5): 9.505 log10(CFU/ml) and 9.176 log10(CFU/ml) and 8.301 log10(CFU/ml) | Killing: average Δlog10(CFU/ml) (non-growing UPEC CFT073; E. coli in 1:4 CA-MHB (pH 7.4), concentration 0.5, vs 8.977 before treatment): -0.017 log10(CFU/ml) | log10(CFU/ml) after treatment, single replicates (non-growing UPEC CFT073; E. coli in 1:4 CA-MHB (pH 7.4), concentration 1): 9.556 log10(CFU/ml) and 9.114 log10(CFU/ml) and 8.431 log10(CFU/ml) | Killing: average Δlog10(CFU/ml) (non-growing UPEC CFT073; E. coli in 1:4 CA-MHB (pH 7.4), concentration 1, vs 8.977 before treatment): -0.057 log10(CFU/ml) | log10(CFU/ml) after treatment, single replicates (non-growing UPEC CFT073; E. coli in 1:4 CA-MHB (pH 7.4), concentration 2.5): 9.415 log10(CFU/ml) and 8.954 log10(CFU/ml) and 8.342 log10(CFU/ml) | Killing: average Δlog10(CFU/ml) (non-growing UPEC CFT073; E. coli in 1:4 CA-MHB (pH 7.4), concentration 2.5, vs 8.977 before treatment): 0.073 log10(CFU/ml) | log10(CFU/ml) after treatment, single replicates (non-growing UPEC CFT073; E. coli in 1:4 CA-MHB (pH 7.4), concentration 5): 9.477 log10(CFU/ml) and 8.903 log10(CFU/ml) and 8.431 log10(CFU/ml) | Killing: average Δlog10(CFU/ml) (non-growing UPEC CFT073; E. coli in 1:4 CA-MHB (pH 7.4), concentration 5, vs 8.977 before treatment): 0.040 log10(CFU/ml) | log10(CFU/ml) after treatment, single replicates (non-growing UPEC CFT073; E. coli in 1:4 CA-MHB (pH 7.4), concentration 10): 9.519 log10(CFU/ml) and 8.845 log10(CFU/ml) and 8.778 log10(CFU/ml) | Killing: average Δlog10(CFU/ml) (non-growing UPEC CFT073; E. coli in 1:4 CA-MHB (pH 7.4), concentration 10, vs 8.977 before treatment): -0.070 log10(CFU/ml) | log10(CFU/ml) after treatment, single replicates (non-growing UPEC CFT073; E. coli in LPM (pH 5.5), concentration 0.25): 7.041 log10(CFU/ml) and 7.176 log10(CFU/ml) and 8.079 log10(CFU/ml) | Killing: average Δlog10(CFU/ml) (non-growing UPEC CFT073; E. coli in LPM (pH 5.5), concentration 0.25, vs 7.350 before treatment): -0.082 log10(CFU/ml) | log10(CFU/ml) after treatment, single replicates (non-growing UPEC CFT073; E. coli in LPM (pH 5.5), concentration 0.5): 6.845 log10(CFU/ml) and 6.778 log10(CFU/ml) and 8.000 log10(CFU/ml) | Killing: average Δlog10(CFU/ml) (non-growing UPEC CFT073; E. coli in LPM (pH 5.5), concentration 0.5, vs 7.350 before treatment): 0.143 log10(CFU/ml) | log10(CFU/ml) after treatment, single replicates (non-growing UPEC CFT073; E. coli in LPM (pH 5.5), concentration 1): 7.176 log10(CFU/ml) and 7.255 log10(CFU/ml) and 8.000 log10(CFU/ml) | Killing: average Δlog10(CFU/ml) (non-growing UPEC CFT073; E. coli in LPM (pH 5.5), concentration 1, vs 7.350 before treatment): -0.127 log10(CFU/ml) | log10(CFU/ml) after treatment, single replicates (non-growing UPEC CFT073; E. coli in LPM (pH 5.5), concentration 2.5): 6.845 log10(CFU/ml) and 6.954 log10(CFU/ml) and 7.845 log10(CFU/ml) | Killing: average Δlog10(CFU/ml) (non-growing UPEC CFT073; E. coli in LPM (pH 5.5), concentration 2.5, vs 7.350 before treatment): 0.136 log10(CFU/ml) | log10(CFU/ml) after treatment, single replicates (non-growing UPEC CFT073; E. coli in LPM (pH 5.5), concentration 5): 6.778 log10(CFU/ml) and 6.845 log10(CFU/ml) and 7.785 log10(CFU/ml) | Killing: average Δlog10(CFU/ml) (non-growing UPEC CFT073; E. coli in LPM (pH 5.5), concentration 5, vs 7.350 before treatment): 0.214 log10(CFU/ml) | log10(CFU/ml) after treatment, single replicates (non-growing UPEC CFT073; E. coli in LPM (pH 5.5), concentration 10): 6.954 log10(CFU/ml) (2×) and 7.531 log10(CFU/ml) | Killing: average Δlog10(CFU/ml) (non-growing UPEC CFT073; E. coli in LPM (pH 5.5), concentration 10, vs 7.350 before treatment): 0.204 log10(CFU/ml) | log10(CFU/ml) after treatment, single replicates ([1]; concentration 0.1): 9.505 log10(CFU/ml) and 8.903 log10(CFU/ml) and 9.033 log10(CFU/ml) | Killing: average Δlog10(CFU/ml) ([1]; concentration 0.1): -0.050 log10(CFU/ml) | log10(CFU/ml) after treatment, single replicates ([1]; concentration 0.5): 9.107 log10(CFU/ml) and 9.017 log10(CFU/ml) and 8.505 log10(CFU/ml) | Killing: average Δlog10(CFU/ml) ([1]; concentration 0.5): 0.221 log10(CFU/ml) | log10(CFU/ml) after treatment, single replicates ([1]; concentration 2.5): 8.929 log10(CFU/ml) and 8.940 log10(CFU/ml) and 8.806 log10(CFU/ml) | Killing: average Δlog10(CFU/ml) ([1]; concentration 2.5): 0.205 log10(CFU/ml) | log10(CFU/ml) after treatment, single replicates ([1]; concentration 10): 8.973 log10(CFU/ml) and 9.017 log10(CFU/ml) and 8.944 log10(CFU/ml) | Killing: average Δlog10(CFU/ml) ([1]; concentration 10): 0.119 log10(CFU/ml)

CN1CCN(c2cc3c(cc2F)c(=O)c(C(=O)O)cn3-c2ccc(F)cc2)CC1 [Difloxacin]
average Δlog10(CFU/ml) (killing) ([1]; drug conc 0.1): 0.032 log10(CFU/ml) | average Δlog10(CFU/ml) (killing) ([1]; drug conc 0.5): 0.171 log10(CFU/ml) | average Δlog10(CFU/ml) (killing) ([1]; drug conc 2.5): 0.107 log10(CFU/ml) | average Δlog10(CFU/ml) (killing) ([1]; drug conc 10): 0.435 log10(CFU/ml)

— article PMC11992225, “Antibacterial compounds against non-growing and intracellular bacteria” (npj Antimicrobials and Resistance, 2025)
